Experimental data: publication PMC11620503 (Antimicrobial Agents and Chemotherapy, 2024)
Converted amounts (≈) assume the structure as drawn. Like-named read-outs stand apart in the source and are kept apart here.

Columns and labels:
[1] = system: MEM-nonsusceptible Enterobacterales; assay: MIC, broth microdilution; assay type: cell-based; conditions: MEM-nonsusceptible Enterobacterales (92), CDC AR Bank
[2] = system: E. coli CDC-151 (NDM-5), PBP3 mutations; assay: MIC, broth microdilution; assay type: cell-based; conditions: Escherichia coli, fixed BLI concentration (μg/mL) in parentheses in label
[3] = system: MEM-nonsusceptible Enterobacterales with serine-carbapenemases; assay: MIC, broth microdilution; assay type: cell-based; conditions: MEM-nonsusceptible Enterobacterales with serine-carbapenemases (42), CDC AR Bank
[4] = system: MEM-, imipenem/relebactam-, and ceftolozane/tazobactam-nonsusceptible P. aeruginosa; assay: MIC, broth microdilution; assay type: cell-based, Pseudomonas aeruginosa; conditions: for MIC50 / MIC90: Pseudomonas aeruginosa; for MIC50: read-out: MIC50; for MIC90: read-out: MIC90
[5] = system: E. coli CDC-119 (NDM-1), PBP3 mutations; assay: MIC, broth microdilution; assay type: cell-based; conditions: Escherichia coli
[6] = system: serine-carbapenemase-producing isolates (Enterobacterales); assay: MIC, broth microdilution; assay type: cell-based; conditions: Enterobacterales with serine-carbapenemases (61), CDC AR Bank
[7] = system: MEM-nonsusceptible Enterobacterales with metallo-carbapenemases; assay: MIC, broth microdilution; assay type: cell-based; conditions: MEM-nonsusceptible Enterobacterales with metallo-carbapenemases (41), CDC AR Bank; for MIC50 / MIC90: fixed concentration (μg/mL) in label; for MIC50: read-out: MIC50; for MIC90: read-out: MIC90
[8] = system: Cefepime/taniborbactam-nonsusceptible Enterobacterales with metallo-carbapenemases (25); assay: MIC, broth microdilution; assay type: cell-based; conditions: CDC AR Bank; for MIC50 / MIC90: fixed concentration (μg/mL) in label
[9] = system: E. coli CDC-150 (NDM-5), PBP3 mutations; assay: MIC, broth microdilution; assay type: cell-based; conditions: Escherichia coli, fixed BLI concentration (μg/mL) in parentheses in label
96 P. aeruginosa = assay: MIC, broth microdilution; assay type: cell-based, Pseudomonas aeruginosa; conditions: Pseudomonas aeruginosa (96)
[10] = system: E. coli CDC-137 (NDM-6), PBP3 mutations; assay: MIC, broth microdilution; assay type: cell-based; conditions: Escherichia coli, fixed BLI concentration (μg/mL) in parentheses in label
[11] = system: Enterobacterales (154), CDC AR Bank; assay: MIC, broth microdilution; assay type: cell-based
[12] = system: E. coli CDC-149 (NDM-7), PBP3 mutations; assay: MIC, broth microdilution; assay type: cell-based; conditions: Escherichia coli
[13] = system: 55 isolates of A. baumannii; assay: MIC, broth microdilution; assay type: cell-based, Acinetobacter baumannii; conditions: Acinetobacter baumannii (55), fixed concentration (μg/mL) in label
[14] = system: E. coli CDC-435 (NDM-1), PBP3 mutations; assay: MIC, broth microdilution; assay type: cell-based; conditions: Escherichia coli, fixed BLI concentration (μg/mL) in parentheses in label
[15] = system: E. coli CDC-162 (NDM-7), PBP3 mutations; assay: MIC, broth microdilution; assay type: cell-based; conditions: Escherichia coli
[16] = system: Acinetobacter baumannii (46); assay: MIC, broth microdilution; assay type: cell-based
[17] = system: MBL-producing isolates (Enterobacterales); assay: MIC, broth microdilution; assay type: cell-based; conditions: Enterobacterales with metallo-carbapenemases (47), CDC AR Bank, fixed concentration (μg/mL) in label
[18] = in humans; cited from earlier work
[19] = CLSI breakpoints, marked c: breakpoints for β-lactam alone
[20] = fixed concentration (μg/mL) in label, read-out: MIC50
[21] = fixed concentration (μg/mL) in label, read-out: MIC90
[22] = Imipenem/relebactam-nonsusceptible Pseudomonas aeruginosa (43), CLSI breakpoints, marked c: breakpoints for β-lactam alone
[23] = MEM-nonsusceptible Pseudomonas aeruginosa (76), CLSI breakpoints, marked c: breakpoints for β-lactam alone
[24] = Imipenem/relebactam-nonsusceptible Pseudomonas aeruginosa (43), fixed concentration (μg/mL) in label
[25] = MEM-nonsusceptible Pseudomonas aeruginosa (76), fixed concentration (μg/mL) in label
[26] = fixed concentration (μg/mL) in label

C[C@H]1[C@H](NC(=O)/C(=N\OC(C)(C)C(=O)O)c2csc(N)n2)C(=O)N1S(=O)(=O)O [ATM, aztreonam]
CLSI MIC interpretation I (intermediate) [1, 19]: 1.1% | CLSI MIC interpretation R (resistant) [1, 19]: 90.2% | CLSI MIC interpretation S (susceptible) [1, 19]: 8.7% | MIC50 [1, 20]: > 64 µg/mL | MIC90 [1, 21]: > 64 µg/mL | MIC [2]: 32 µg/mL (≈ 73.5 µM) | CLSI MIC interpretation I (intermediate) [3, 19]: 2.4% | CLSI MIC interpretation R (resistant) [3, 19]: 92.9% | CLSI MIC interpretation S (susceptible) [3, 19]: 4.8% | MIC50 [3, 20]: > 64 µg/mL | MIC90 [3, 21]: > 64 µg/mL | CLSI MIC interpretation (%) I ([4]; I, intermediate (including susceptible dose-dependent), CLSI breakpoints, last subgroup of Table 2): 8.9% | CLSI MIC interpretation I (intermediate) [4, 22]: 9.3% | CLSI MIC interpretation R (resistant) [4, 22]: 60.5% | CLSI MIC interpretation S (susceptible) [4, 22]: 30.2% | CLSI MIC interpretation R (resistant) [4, 23]: 56.6% | CLSI MIC interpretation S (susceptible) [4, 23]: 30.3% | MIC50 [4, 24]: 32 µg/mL | MIC90 [4, 24]: > 64 µg/mL | MIC50 [4, 25]: 32 µg/mL (≈ 73.5 µM) | MIC90 [4, 25]: > 64 µg/mL | MIC50 ([4]; Table 2, broth microdilution): 32 µg/mL (≈ 73.5 µM) | MIC90 ([4]; Table 2, broth microdilution): > 64 µg/mL | CLSI MIC interpretation (%) R ([4]; R, resistant, CLSI breakpoints, last subgroup of Table 2): 62.2% | CLSI MIC interpretation (%) S ([4]; S, susceptible, CLSI breakpoints, last subgroup of Table 2): 28.9% | MIC [5]: > 64 µg/mL | CLSI MIC interpretation I (intermediate) [6, 19]: 3.3% | CLSI MIC interpretation R (resistant) [6, 19]: 85.2% | CLSI MIC interpretation S (susceptible) [6, 19]: 11.5% | MIC50 [6, 20]: > 64 µg/mL | MIC90 [6, 21]: > 64 µg/mL | CLSI MIC interpretation I (intermediate) [7, 19]: 0% | CLSI MIC interpretation R (resistant) [7, 19]: 85.4% | CLSI MIC interpretation S (susceptible) [7, 19]: 14.6% | MIC50 [7]: > 64 µg/mL | MIC90 [7]: > 64 µg/mL | CLSI MIC interpretation I (intermediate) [8, 19]: 0% | CLSI MIC interpretation R (resistant) [8, 19]: 96% | CLSI MIC interpretation S (susceptible) [8, 19]: 4% | MIC50 [8]: > 64 µg/mL | MIC90 [8]: > 64 µg/mL | MIC [9]: 32 µg/mL (≈ 73.5 µM) | CLSI MIC interpretation R (resistant) (96 P. aeruginosa; [19]): 47.9% | CLSI MIC interpretation S (susceptible) (96 P. aeruginosa; [19]): 39.6% | MIC50 (96 P. aeruginosa; [20]): 16 µg/mL (≈ 36.7 µM) | MIC90 (96 P. aeruginosa; [21]): > 64 µg/mL | MIC [10]: > 64 µg/mL | CLSI MIC interpretation I (intermediate) [11, 19]: 2.6% | CLSI MIC interpretation R (resistant) [11, 19]: 80.5% | CLSI MIC interpretation S (susceptible) [11, 19]: 16.9% | MIC50 [11, 26]: > 64 µg/mL | MIC90 [11, 26]: > 64 µg/mL | MIC [12]: 0.5 µg/mL (≈ 1.15 µM) | MIC50 ([13]; read-out: MIC50): 64 µg/mL (≈ 147 µM) | MIC90 ([13]; read-out: MIC90): > 64 µg/mL | MIC [14]: > 64 µg/mL | MIC [15]: > 64 µg/mL

CO/N=C(\C(=O)N[C@@H]1C(=O)N2C(C(=O)[O-])=C(C[N+]3(C)CCCC3)CS[C@H]12)c1csc(N)n1 [FEP, cefepime]
MIC [2]: > 64 µg/mL | MIC [5]: > 64 µg/mL | MIC50 [7]: > 64 µg/mL | MIC90 [7]: > 64 µg/mL | MIC50 [8]: > 64 µg/mL | MIC90 [8]: > 64 µg/mL | CLSI MIC interpretation I (intermediate) [16, 19]: 4.3% | CLSI MIC interpretation R (resistant) [16, 19]: 95.7% | CLSI MIC interpretation S (susceptible) [16, 19]: 0% | MIC50 [16, 26]: 64 µg/mL (≈ 133 µM) | MIC90 [16, 26]: > 256 µg/mL | MIC [9]: > 64 µg/mL | MIC [10]: > 64 µg/mL | MIC [12]: > 64 µg/mL | MIC [14]: > 64 µg/mL | MIC [15]: > 64 µg/mL | MIC50 ([17]; read-out: MIC50): > 64 µg/mL | MIC90 ([17]; read-out: MIC90): > 64 µg/mL

O=C(O)c1c(F)ccc2c1OB(O)[C@@H]1C[C@H]21 [xeruborbactam]
protein binding rate [18]: over 90%
